≈ marks a conversion by molar mass, not a printed value. Like-named read-outs stand apart in the source and are kept apart here.
How the values were obtained:
[1] = test system: Mycobacterium aurum; conditions: surrogate for Mycobacterium tuberculosis; cited from earlier work
[2] = test system: M. smegmatis; conditions: cited from earlier work
[3] = target: Ag85C (Mycobacterium tuberculosis, UniProt P9WQN9); test: 4-methylumbelliferyl butyrate; assay type: biochemical
[4] = test system: M. tuberculosis inside macrophages; conditions: 100 µM concentration; cited from earlier work
[5] = test system: M. tuberculosis; conditions: cited from earlier work
[6] = test system: synthesis of TDM; conditions: cited from earlier work
[7] = test system: Ag85s; conditions: screening of the NIH Clinical Collection; cited from earlier work
[8] = 600 nM Ag85C, 10 mM trehalose, 100 µM 4-MUB, 37 °C, inhibitor 20-320 µM

Ag85C, sequence (P9WQN9 46-340): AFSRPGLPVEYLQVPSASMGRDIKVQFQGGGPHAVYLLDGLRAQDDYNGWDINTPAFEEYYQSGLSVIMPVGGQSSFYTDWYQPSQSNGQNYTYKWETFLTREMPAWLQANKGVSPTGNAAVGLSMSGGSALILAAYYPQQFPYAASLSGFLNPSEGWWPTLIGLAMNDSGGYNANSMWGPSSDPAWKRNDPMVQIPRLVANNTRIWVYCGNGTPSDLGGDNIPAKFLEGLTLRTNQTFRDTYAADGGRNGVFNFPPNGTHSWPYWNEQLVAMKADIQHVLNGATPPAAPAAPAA

[N-]=[N+]=NC[C@H]1O[C@H](O[C@H]2O[C@H](CO)[C@@H](O)[C@H](O)[C@H]2O)[C@H](O)[C@@H](O)[C@@H]1O [6-azido-6-deoxytrehalose]
growth inhibition of Mycobacterium aurum [1]: completely inhibit the growth

N#Cc1c(N)sc2c1CCCC2 [Compound 1b, 2-Amino-4,5,6,7-tetrahydrobenzo[b]thiophene-3-carbonitrile]
MIC [2]: 50 to 100 µg/mL

CCOC(=O)c1c(NC(=O)CSCC2OC(OC)C(O)C2O)sc2c1CCCC2 [Compound 13a, Ethyl 2-(methyl 5-thio-α-D-arabinofuranoside-5-S-yl)acetamido-4,5,6,7-tetrahydrobenzo[b]thiophene-3-carboxylate]
Ki [3, 8]: 18.2 µM

CO[C@H]1O[C@H](CSCC(=O)Nc2sc3c(c2C#N)CCCC3)[C@@H](O)[C@@H]1O [Compound 13b, N-(3-cyano-4,5,6,7-tetrahydrobenzo[b]thiophen-2-yl)-2-(methyl 5-thio-α-D-arabinofuranoside-5-S-yl)acetamide]
Ki [3, 8]: 34.8 µM

CCOC(=O)c1c(NC(=O)C(CC)SC[C@H]2O[C@H](OC)[C@@H](O)[C@@H]2O)sc2c1CCCC2 (stereo partly drawn) [Compound 13c, Ethyl 2-(methyl 5-thio-α-D-arabinofuranoside-5-S-yl)butamido-4,5,6,7-tetrahydrobenzo[b]thiophene-3-carboxylate]
Ki [3, 8]: 71 µM

COC1O[C@H](CSCCn2c(=O)[nH]c3sc4c(c3c2=O)CCCC4)[C@@H](O)[C@@H]1O (stereo partly drawn) [Compound 14, Methyl 5-S-[2-(2,4-dioxo-1,4,5,6,7,8-hexahydro[1]benzothieno[2,3-d]-pyrimidin-3(2H)-yl)ethyl]-5-thioarabinofuranoside]
Ki [3]: 47.1 µM

CCCC1CCc2c(sc(N)c2C#N)C1 (centres unmarked) [Compound I3-AG85, 2-amino-6-propyl-4,5,6,7-tetrahydro-1-benzothiophene-3-carbonitrile]
survival of M. tuberculosis inside macrophages [4]: reduced survival | concentration inhibiting growth of MDR and XDR strains ([5]; 7 MDR and 3 XDR M. tuberculosis strains): ≤ 200 µM | MIC ([5]; M. tuberculosis): 100 µg/mL (≈ 454 µM) | inhibition of the synthesis of TDM [6]: inhibit the synthesis of TDM

O=c1c2ccccc2[se]n1-c1ccccc1 [ebselen]
inhibition of Ag85s [7]: nM inhibitor

— paper PMC3548330 (Bioconjugate chemistry, 2012)
